Reference: article PMC12323621, “Exploring the antimicrobial activity of pantothenamides against uropathogenic Escherichia coli” (Microbiology Spectrum, 2025)

How the values were obtained:
[1] = test system: UPEC strain CFT073; assay: Checkerboard analysis of BAP with pantothenamide in pooled human urine; assay type: cell-based, Escherichia coli; conditions: combination with BAP, UPEC in urine batch B
Protocol: As previously described ([7]), an inoculum of 10^5 CFU/mL CFT073 was prepared in pooled human urine Batch B (described above). Cells (100 µL) were added 1:1 to a 96-well plate containing varied combinations of BAP and 1 or N5-Pan analog at 2× the final concentration (100 µL). The OD600 was recorded at 37°C for 16 h with intermittent shaking. Fractional growth was calculated relative to the no drug control at 6 h. Experiments were performed in biological triplicate.
Fractional inhibitory concentration indices (FICI) were determined as previously described ([7], [8]) and calculated using equation 2:
FICI=FICA+FICB=([A]/MICA)+([B]/MICB)
MICA and MICB are the lowest [A] or [B], respectively, required to suppress 90% of the bacterial growth. FICA was calculated as [A] in the presence of B for a combination resulting in <10% growth, divided by MICA. FICB was calculated as [B] in the presence of A for a combination resulting in <10% growth, divided by MICB. Isobolograms were prepared from the checkerboard analysis by plotting FIC for BAP and 1 or 6 over the range of BAP concentrations tested in combination with 1 or 6. Points falling below the line of additivity indicate potentiation of activity. See Fig. S6 for the visual representation of the method of assembling isobolograms.

[2] = test system: UPEC strain CFT073; assay: Antimicrobial susceptibility assay, UPEC grown in MOPS-glycerol; assay type: cell-based, Escherichia coli; conditions: UPEC CFT073 grown in MOPS-glycerol, 24 h, ± standard error; for MIC: Escherichia coli
Source text: Unless otherwise noted, all reagents were obtained from commercial sources. BAP, 1, and N5-Pan analogs were synthesized according to previously reported procedures ([31], [53]). Urine was self-collected from adult males and females (not menstruating) between 24 and 57 years old (recruitment was open to donors 18–65 years old), who had not used anti-infectives or cranberry products for at least 7 days prior to collection. The collection protocol was approved by the Johns Hopkins University Institutional Review Boards under IRB study NA_00085130. Informed, written consent was obtained from all participants prior to collection. Urine was collected from at least 7 participants over 14 days, stored at 4°C upon collection, and then pooled, filter-sterilized, and frozen at −20°C. Urine Batch A included five male and three female donors with an average age of 33 years (range: 24–57). Urine Batch B included four male and five female donors with an average age of 26 years (range: 24–43). Samples from two donors (donations made at least 30 days apart) were included in both Batch A and Batch B. Urine Batch C included four male and three female donors with an average age of 27 years (range: 24–36). Urine Batch D included four male and three female donors with an average age of 27 years (range: 25–35). Solid urine agar plates were prepared by supplementing cooled 1.5% (wt/vol) agar with filter-sterilized urine in a 4:1 ratio. Liquid MOPS-glycerol was prepared by adding 10 × 3-(N-morpholino)propanesulfonic acid (MOPS) Buffer (Teknova) to water to a final 1× concentration, 1.32 mM K2HPO4, and 0.4% (vol/vol) glycerol and then filter-sterilizing. Unless otherwise noted, all media were supplemented with freshly prepared 20 µM FeSO4. OD600 analyses were performed on Mettler-Toledo UV5Bio UV/Visible spectrophotometer (Columbus, Ohio, USA). For antimicrobial studies, uropathogenic E. coli strain CFT073 (ATCC: BAA-2503) was provided by Kevin Schwartz from the lab of Rodney Welch. All manipulation of UPEC was conducted in a certified biosafety level 2 (BSL-2) laboratory while using BSL-2-associated safety procedures. Antimicrobial data were collected on a Biotek Epoch 2 microplate reader or a Biotek Synergy Neo 2 microplate reader. For metabolic stability studies, losartan potassium (PHR1602), used as an internal standard, was bought from Millipore Sigma (Burlington, MA). Methanol (A456-4) and acetonitrile (A955-4) were purchased from Fisher Chemical (Pittsburgh, PA). Water (9831-03) was purchased from JT Baker (Philipsburg, NJ). Dimethyl sulfoxide (DMSO)(154938-500mL) was purchased from Sigma Aldrich (St. Louis, MO). Mouse plasma (WT) was purchased from Innovative Research (Novi, MI). Mouse liver microsomes (M1000) were purchased from XenoTech LLC (Kansas City, KS).
All antimicrobial susceptibility assays were conducted as previously described using an aseptic technique with some modification ([7]). Briefly, 3–5 isolated colonies of CFT073 on LB agar or pooled urine agar were inoculated into 3 mL of liquid MOPS-glycerol medium or pooled urine, respectively, and grown overnight with shaking at 37°C. Saturated cultures were diluted 1:50 in fresh medium and grown to an OD600 of 0.4. These exponential phase cultures were then diluted 1:1,000 into fresh medium to yield the experimental inoculum, which was mixed 1:1 with medium containing 1 or N5-Pan analog at twice the desired final concentration in 96-well plates. The final concentration of bacteria in each well was approximately 10^5 CFU/mL in a final volume of 200 µL. The concentration ranges of compounds evaluated in MOPS-glycerol were: 1 (0–312.5 μM), 2 (0–100 μM), 3 (0–500 μM), 4–5 (0–2,000 μM), 6–7 (0–100 μM), and 8–12 (0-2,000 μM). Analogs 1, 6, and 7 were evaluated over a range of 0–4,000 μM in four batches of pooled human urine. The OD600 was monitored for 24 h (MOPS-glycerol) or 16 h (pooled urine) at 37°C with periodic shaking. […]

MIC [2] | MIC MOPS-glycerol [2] | Compound | effect of BAP on activity (isobologram analysis) [1] | Fractional inhibitory concentration index (FICI) ([1]; range across experiments)
6.25 µM | 6.25 ± 0.00 µM | CCCCCNC(=O)CNC(=O)[C@H](O)C(C)(C)CO [compound 6, N5-α-pantothenamide] | potentiates the activity | 0.5–1.25
2.44 µM | 2.44 ± 0.00 µM | CCCCCNC(=O)CCNC(=O)[C@H](O)C(C)(C)CO [compound 1, N-pentylpantothenamide, reference compound] | potentiates the activity | –
